Experimental data from PubChem BioAssay AID504627 (NMMLSC, 2011).
The source made the active and inactive calls.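 How the source made its calls: active means polarization drop versus untreated control wells larger than 25 mP; inactive means the rest.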

Legend:
Test in all cases: Bcl-2 family protein peptide binding inhibitors, dose response, biochemical, fluorescence polarization, powder compounds set 1, panel (AID 504627)
[1] = biological target: Bcl-2-like protein 10 (Homo sapiens) (UniProt Q9HD36); details: GST-Bcl-2 family protein, FITC-peptide fluorescence polarization, BclB; for polarization signal (mP), lower = inhibition: at 50 µM (top of the series)
[2] = biological target: Apoptosis regulator Bcl-2 (Homo sapiens) (UniProt P10415); details: GST-Bcl-2 family protein, FITC-peptide fluorescence polarization, Bcl2; for polarization signal (mP), lower = inhibition: at 50 µM (top of the series)
[3] = biological target: Bcl-2-like protein 1 (Homo sapiens) (UniProt Q07817); details: GST-Bcl-2 family protein, FITC-peptide fluorescence polarization, BclXL; for polarization signal (mP), lower = inhibition: at 50 µM (top of the series)
[4] = biological target: Bcl-2-related protein A1 (Homo sapiens) (UniProt Q16548); details: GST-Bcl-2 family protein, FITC-peptide fluorescence polarization, Bfl1; for polarization signal (mP), lower = inhibition: at 50 µM (top of the series)
Bcl-2-related protein A1 (Homo sapiens), sequence (Q16548 whole entry, looked up): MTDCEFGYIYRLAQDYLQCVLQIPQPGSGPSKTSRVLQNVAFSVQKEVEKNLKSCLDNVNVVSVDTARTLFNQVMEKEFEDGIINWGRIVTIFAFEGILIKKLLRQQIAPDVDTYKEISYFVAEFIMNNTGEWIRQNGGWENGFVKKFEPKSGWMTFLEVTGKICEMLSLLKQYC

Bcl-2-like protein 10 (Homo sapiens), sequence (Q9HD36 whole entry, looked up): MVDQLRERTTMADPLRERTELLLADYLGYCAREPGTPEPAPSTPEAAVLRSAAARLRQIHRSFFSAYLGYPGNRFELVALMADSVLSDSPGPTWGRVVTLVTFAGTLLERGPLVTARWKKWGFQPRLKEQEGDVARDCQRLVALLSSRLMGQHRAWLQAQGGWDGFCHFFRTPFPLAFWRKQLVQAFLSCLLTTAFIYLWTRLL
Apoptosis regulator Bcl-2 (Homo sapiens), sequence (P10415 whole entry, looked up): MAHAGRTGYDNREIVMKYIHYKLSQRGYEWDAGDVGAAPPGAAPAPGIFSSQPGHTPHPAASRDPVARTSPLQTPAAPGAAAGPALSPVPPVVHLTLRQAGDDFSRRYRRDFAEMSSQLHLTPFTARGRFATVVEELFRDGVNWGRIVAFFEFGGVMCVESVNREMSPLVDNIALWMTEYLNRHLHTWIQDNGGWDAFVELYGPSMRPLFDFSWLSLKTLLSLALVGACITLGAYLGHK
Bcl-2-like protein 1 (Homo sapiens), sequence (Q07817 whole entry, looked up): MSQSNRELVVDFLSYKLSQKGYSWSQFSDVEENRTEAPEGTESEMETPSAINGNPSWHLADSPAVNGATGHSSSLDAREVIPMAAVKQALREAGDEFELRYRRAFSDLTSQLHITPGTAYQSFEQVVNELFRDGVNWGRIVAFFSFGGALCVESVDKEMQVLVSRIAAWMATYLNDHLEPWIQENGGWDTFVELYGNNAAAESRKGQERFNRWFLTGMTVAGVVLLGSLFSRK

SMILES: CNC(CC(=O)c1ccc([N+](=O)[O-])cc1)C(Cl)(Cl)Cl (stereo not given)
- polarization signal (mP), lower = inhibition [1]: inactive
- polarization signal (mP), lower = inhibition [2]: inactive
- polarization signal (mP), lower = inhibition [3]: inactive
- polarization signal (mP), lower = inhibition [4]: inactive

SMILES: O=C1NC(=O)C2(Cc3c(nc4ccccn4c3=O)N3CCCCCC32)C(=O)N1Cc1ccccc1 (stereo not given)
- IC50 [1]: 1.16 µM
- polarization signal (mP), lower = inhibition [2]: inactive
- polarization signal (mP), lower = inhibition [3]: inactive
- polarization signal (mP), lower = inhibition [4]: inactive

SMILES: Oc1ccc(NCc2ccccc2OCc2ccccc2)cc1
- polarization signal (mP), lower = inhibition [1]: inactive
- polarization signal (mP), lower = inhibition [2]: inactive
- polarization signal (mP), lower = inhibition [3]: inactive
- polarization signal (mP), lower = inhibition [4]: inactive

SMILES: COc1ccccc1-n1c(-c2ccccc2)c[nH]c1=S
- polarization signal (mP), lower = inhibition [1]: inactive
- polarization signal (mP), lower = inhibition [2]: inactive
- polarization signal (mP), lower = inhibition [3]: inactive
- polarization signal (mP), lower = inhibition [4]: inactive

SMILES: O=C1C(Cl)=C(N2CCN(c3ccccc3[N+](=O)[O-])CC2)C(=O)c2ccccc21
- IC50 [1]: 3.99 µM
- IC50 [2]: 5.64 µM
- IC50 [3]: 4.4 µM
- IC50 [4]: 2.73 µM

SMILES: Cc1ccc(-c2cc(-c3ccc(F)cc3)c(C#N)c(N)n2)o1
- polarization signal (mP), lower = inhibition [1]: inactive
- polarization signal (mP), lower = inhibition [2]: inactive
- polarization signal (mP), lower = inhibition [3]: inactive
- polarization signal (mP), lower = inhibition [4]: inactive

SMILES: Cc1ccc(-c2cc(-c3ccc(C)o3)nc(N)c2C#N)cc1
- polarization signal (mP), lower = inhibition [1]: inactive
- polarization signal (mP), lower = inhibition [2]: inactive
- polarization signal (mP), lower = inhibition [3]: inactive
- polarization signal (mP), lower = inhibition [4]: inactive

SMILES: Cc1cc(-c2cc(-c3ccc(Cl)cc3)nc(N)c2C#N)co1
- polarization signal (mP), lower = inhibition [1]: inactive
- polarization signal (mP), lower = inhibition [2]: inactive
- polarization signal (mP), lower = inhibition [3]: inactive
- polarization signal (mP), lower = inhibition [4]: inactive

SMILES: O=c1c2c(n3nnnc3n1Cc1ccccc1)-c1ccccc1CC21CCCC1
- IC50 [1]: 1.13 µM
- polarization signal (mP), lower = inhibition [2]: inactive
- polarization signal (mP), lower = inhibition [3]: inactive
- polarization signal (mP), lower = inhibition [4]: inactive

SMILES: Cc1ccc(C=NNC(=O)CSc2nnc(-c3ccc(Cl)cc3)n2-c2ccccc2)o1
- IC50 [1]: 8.58 µM
- polarization signal (mP), lower = inhibition [2]: inactive
- polarization signal (mP), lower = inhibition [3]: inactive
- polarization signal (mP), lower = inhibition [4]: inactive
